Reference: ChEMBL document CHEMBL4507319 (2021)

Legend:
[1] = molecular target: BMP-2-inducible protein kinase (Homo sapiens) (UniProt Q9NSY1); conditions: Compound concentration 1000.0 nM
[2] = molecular target: Tyrosine-protein kinase Blk (Homo sapiens) (UniProt P51451); conditions: Compound concentration 1000.0 nM
[3] = molecular target: Dual specificity tyrosine-phosphorylation-regulated kinase 1A (Homo sapiens) (UniProt Q13627); conditions: Compound concentration 1000.0 nM
[4] = molecular target: Epidermal growth factor receptor (Homo sapiens) (UniProt P00533); conditions: Compound concentration 1000.0 nM
[5] = system: Epidermal growth factor receptor (Homo sapiens), P00533 [T790M]; conditions: Compound concentration 1000.0 nM
[6] = molecular target: Ephrin type-A receptor 2 (Homo sapiens) (UniProt P29317); conditions: Compound concentration 1000.0 nM
[7] = molecular target: Mitogen-activated protein kinase 1 (Homo sapiens) (UniProt P28482); conditions: Compound concentration 1000.0 nM
[8] = molecular target: Fibroblast growth factor receptor 3 (Homo sapiens) (UniProt P22607); conditions: Compound concentration 1000.0 nM
Sequence of Fibroblast growth factor receptor 3 (Homo sapiens) (P22607 23-806 limits assumed): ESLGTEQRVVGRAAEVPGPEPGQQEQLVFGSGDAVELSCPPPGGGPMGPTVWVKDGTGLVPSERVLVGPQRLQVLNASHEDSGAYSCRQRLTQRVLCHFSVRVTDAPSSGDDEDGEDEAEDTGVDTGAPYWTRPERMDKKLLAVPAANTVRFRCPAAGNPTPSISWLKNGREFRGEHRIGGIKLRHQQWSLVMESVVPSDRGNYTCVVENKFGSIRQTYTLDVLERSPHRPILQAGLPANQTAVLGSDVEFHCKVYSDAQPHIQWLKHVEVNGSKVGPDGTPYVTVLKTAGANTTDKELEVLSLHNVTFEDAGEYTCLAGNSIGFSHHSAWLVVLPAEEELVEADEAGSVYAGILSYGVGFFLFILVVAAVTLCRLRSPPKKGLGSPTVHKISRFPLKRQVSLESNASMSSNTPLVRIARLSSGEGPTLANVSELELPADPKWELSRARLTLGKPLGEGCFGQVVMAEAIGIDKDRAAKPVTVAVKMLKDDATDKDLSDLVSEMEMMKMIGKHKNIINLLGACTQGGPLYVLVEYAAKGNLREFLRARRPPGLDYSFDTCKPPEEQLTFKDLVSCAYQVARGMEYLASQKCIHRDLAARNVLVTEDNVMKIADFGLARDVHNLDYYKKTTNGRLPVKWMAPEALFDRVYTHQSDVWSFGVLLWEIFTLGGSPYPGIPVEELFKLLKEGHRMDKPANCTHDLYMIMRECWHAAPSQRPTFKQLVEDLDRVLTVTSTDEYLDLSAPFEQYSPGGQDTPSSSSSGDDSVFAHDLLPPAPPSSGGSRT

[9] = molecular target: Receptor-type tyrosine-protein kinase FLT3 (Homo sapiens) (UniProt P36888); conditions: Compound concentration 1000.0 nM
[10] = molecular target: Serine/threonine-protein kinase Nek6 (Homo sapiens) (UniProt Q9HC98); conditions: Compound concentration 1000.0 nM
[11] = molecular target: Serine/threonine-protein kinase PAK 2 (Homo sapiens) (UniProt Q13177); conditions: Compound concentration 1000.0 nM
[12] = molecular target: Serine/threonine-protein kinase PAK 6 (Homo sapiens) (UniProt Q9NQU5); conditions: Compound concentration 1000.0 nM
Sequence of Serine/threonine-protein kinase PAK 6 (Homo sapiens) (Q9NQU5 whole entry, looked up, canonical isoform): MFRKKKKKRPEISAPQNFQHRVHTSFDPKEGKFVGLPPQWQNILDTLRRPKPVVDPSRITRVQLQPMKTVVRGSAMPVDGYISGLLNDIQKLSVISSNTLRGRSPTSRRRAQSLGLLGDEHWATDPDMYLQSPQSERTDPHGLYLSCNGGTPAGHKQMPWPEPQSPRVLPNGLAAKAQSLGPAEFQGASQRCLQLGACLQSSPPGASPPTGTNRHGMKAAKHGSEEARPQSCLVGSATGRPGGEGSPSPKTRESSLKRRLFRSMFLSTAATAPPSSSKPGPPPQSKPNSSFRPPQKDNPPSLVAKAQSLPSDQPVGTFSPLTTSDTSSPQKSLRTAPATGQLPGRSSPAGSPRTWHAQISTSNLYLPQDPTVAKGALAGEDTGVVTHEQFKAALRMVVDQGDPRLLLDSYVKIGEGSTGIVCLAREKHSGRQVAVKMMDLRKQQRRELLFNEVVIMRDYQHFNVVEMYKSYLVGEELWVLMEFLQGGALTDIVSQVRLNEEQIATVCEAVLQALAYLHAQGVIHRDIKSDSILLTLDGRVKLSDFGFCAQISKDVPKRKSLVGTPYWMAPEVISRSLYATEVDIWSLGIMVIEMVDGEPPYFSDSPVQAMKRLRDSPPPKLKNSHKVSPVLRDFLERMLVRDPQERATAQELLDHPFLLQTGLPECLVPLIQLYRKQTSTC

[13] = system: Phosphatidylinositol 4,5-bisphosphate 3-kinase catalytic subunit alpha isoform (Homo sapiens), P42336 [H1047Y]; conditions: Compound concentration 1000.0 nM
[14] = molecular target: Phosphatidylinositol 4,5-bisphosphate 3-kinase catalytic subunit gamma isoform (Homo sapiens) (UniProt P48736); conditions: Compound concentration 1000.0 nM
[15] = molecular target: Phosphatidylinositol 4-kinase beta (Homo sapiens) (UniProt Q9UBF8); conditions: Compound concentration 1000.0 nM
[16] = molecular target: 1-phosphatidylinositol 3-phosphate 5-kinase (Homo sapiens) (UniProt Q9Y2I7); conditions: Compound concentration 1000.0 nM
Sequence of 1-phosphatidylinositol 3-phosphate 5-kinase (Homo sapiens) (Q9Y2I7 whole entry): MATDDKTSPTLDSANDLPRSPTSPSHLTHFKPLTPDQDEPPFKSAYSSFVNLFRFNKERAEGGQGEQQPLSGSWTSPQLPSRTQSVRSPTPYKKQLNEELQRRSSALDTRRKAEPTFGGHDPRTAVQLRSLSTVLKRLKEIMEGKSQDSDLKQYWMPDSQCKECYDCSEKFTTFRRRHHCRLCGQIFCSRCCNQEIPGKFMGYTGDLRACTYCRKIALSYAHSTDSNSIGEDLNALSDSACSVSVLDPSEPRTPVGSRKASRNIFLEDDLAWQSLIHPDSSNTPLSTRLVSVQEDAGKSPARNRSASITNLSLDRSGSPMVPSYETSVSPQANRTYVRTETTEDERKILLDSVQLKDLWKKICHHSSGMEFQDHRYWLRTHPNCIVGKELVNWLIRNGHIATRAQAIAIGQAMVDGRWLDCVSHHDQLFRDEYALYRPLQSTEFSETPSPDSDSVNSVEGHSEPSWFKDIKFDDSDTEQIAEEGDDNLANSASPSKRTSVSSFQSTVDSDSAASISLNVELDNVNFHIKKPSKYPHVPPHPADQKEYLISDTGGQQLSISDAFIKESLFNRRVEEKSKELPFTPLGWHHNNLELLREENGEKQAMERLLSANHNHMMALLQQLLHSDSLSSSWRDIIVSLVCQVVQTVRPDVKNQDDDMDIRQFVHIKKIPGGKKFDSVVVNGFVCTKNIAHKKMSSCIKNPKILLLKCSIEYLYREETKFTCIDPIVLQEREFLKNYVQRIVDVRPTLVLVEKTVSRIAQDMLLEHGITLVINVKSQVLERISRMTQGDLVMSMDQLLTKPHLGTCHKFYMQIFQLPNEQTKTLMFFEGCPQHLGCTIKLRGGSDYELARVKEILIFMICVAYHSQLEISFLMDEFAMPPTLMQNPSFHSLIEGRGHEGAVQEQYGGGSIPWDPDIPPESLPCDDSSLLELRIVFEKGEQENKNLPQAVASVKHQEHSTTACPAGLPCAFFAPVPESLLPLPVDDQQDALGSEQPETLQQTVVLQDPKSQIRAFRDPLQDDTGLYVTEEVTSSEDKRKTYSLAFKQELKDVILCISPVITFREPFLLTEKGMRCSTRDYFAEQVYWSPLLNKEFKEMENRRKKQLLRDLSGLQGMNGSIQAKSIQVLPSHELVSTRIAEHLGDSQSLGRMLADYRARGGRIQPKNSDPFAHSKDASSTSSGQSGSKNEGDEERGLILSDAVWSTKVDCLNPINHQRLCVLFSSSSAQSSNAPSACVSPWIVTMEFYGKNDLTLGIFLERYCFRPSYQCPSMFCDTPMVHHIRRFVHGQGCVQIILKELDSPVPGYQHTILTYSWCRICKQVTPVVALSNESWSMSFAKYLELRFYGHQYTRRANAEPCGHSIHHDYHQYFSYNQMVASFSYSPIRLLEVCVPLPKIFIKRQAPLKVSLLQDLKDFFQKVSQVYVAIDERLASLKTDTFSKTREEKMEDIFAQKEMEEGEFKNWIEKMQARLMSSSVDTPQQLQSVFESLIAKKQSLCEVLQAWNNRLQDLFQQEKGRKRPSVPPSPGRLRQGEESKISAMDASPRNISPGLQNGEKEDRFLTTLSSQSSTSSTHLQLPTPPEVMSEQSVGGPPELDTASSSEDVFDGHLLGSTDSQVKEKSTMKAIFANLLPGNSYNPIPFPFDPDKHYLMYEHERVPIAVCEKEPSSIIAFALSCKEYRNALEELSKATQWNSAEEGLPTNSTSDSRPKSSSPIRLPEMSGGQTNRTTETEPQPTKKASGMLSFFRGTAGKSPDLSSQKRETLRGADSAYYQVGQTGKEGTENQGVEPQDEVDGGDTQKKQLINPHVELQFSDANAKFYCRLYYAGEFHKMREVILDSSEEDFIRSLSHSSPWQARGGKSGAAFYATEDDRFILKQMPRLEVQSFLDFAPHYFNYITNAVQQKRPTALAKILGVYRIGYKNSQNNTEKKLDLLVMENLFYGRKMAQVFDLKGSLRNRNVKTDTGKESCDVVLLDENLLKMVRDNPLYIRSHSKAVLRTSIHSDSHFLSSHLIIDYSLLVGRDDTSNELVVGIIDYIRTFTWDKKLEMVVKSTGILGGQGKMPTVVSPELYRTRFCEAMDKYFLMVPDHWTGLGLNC

[17] = molecular target: Serine/threonine-protein kinase pim-3 (Homo sapiens) (UniProt Q86V86); conditions: Compound concentration 1000.0 nM
[18] = molecular target: Serine/threonine-protein kinase PRP4 homolog (Homo sapiens) (UniProt Q13523); conditions: Compound concentration 1000.0 nM
[19] = molecular target: Serine/threonine-protein kinase SIK1 (Homo sapiens) (UniProt P57059); conditions: Compound concentration 1000.0 nM
Sequence of Serine/threonine-protein kinase SIK1 (Homo sapiens) (P57059 whole entry): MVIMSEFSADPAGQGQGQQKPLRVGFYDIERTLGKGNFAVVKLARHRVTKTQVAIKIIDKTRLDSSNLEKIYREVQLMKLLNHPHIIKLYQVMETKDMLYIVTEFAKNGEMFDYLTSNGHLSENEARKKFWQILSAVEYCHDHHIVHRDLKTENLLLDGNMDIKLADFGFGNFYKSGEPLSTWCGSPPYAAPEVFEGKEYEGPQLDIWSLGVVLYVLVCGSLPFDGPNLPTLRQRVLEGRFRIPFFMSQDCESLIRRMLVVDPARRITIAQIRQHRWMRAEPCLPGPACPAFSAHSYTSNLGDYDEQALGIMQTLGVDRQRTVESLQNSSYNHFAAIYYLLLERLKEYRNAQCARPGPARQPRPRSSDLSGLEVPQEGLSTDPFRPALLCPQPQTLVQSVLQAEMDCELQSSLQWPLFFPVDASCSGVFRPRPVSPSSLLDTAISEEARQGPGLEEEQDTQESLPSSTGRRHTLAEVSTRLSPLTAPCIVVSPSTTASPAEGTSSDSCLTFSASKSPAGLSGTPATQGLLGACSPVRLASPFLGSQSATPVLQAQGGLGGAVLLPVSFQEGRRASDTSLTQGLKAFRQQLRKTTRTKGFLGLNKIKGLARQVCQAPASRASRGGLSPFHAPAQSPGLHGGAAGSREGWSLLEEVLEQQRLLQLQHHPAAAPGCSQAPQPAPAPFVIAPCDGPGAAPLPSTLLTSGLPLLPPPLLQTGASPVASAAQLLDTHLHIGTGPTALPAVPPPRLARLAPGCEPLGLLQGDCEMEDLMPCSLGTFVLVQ

[20] = molecular target: Tyrosine-protein kinase Srms (Homo sapiens) (UniProt Q9H3Y6); conditions: Compound concentration 1000.0 nM
[21] = molecular target: T1, Testis-specific serine/threonine-protein kinase 3 (Homo sapiens) (UniProt Q96PN8); conditions: Compound concentration 1000.0 nM
T1 sequence (whole entry): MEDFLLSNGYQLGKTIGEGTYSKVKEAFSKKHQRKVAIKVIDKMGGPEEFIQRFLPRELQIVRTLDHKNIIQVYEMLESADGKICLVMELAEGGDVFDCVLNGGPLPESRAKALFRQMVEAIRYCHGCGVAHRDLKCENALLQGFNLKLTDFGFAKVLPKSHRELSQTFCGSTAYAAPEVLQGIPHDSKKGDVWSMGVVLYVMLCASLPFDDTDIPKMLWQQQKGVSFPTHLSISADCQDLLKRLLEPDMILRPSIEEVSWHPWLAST

[22] = molecular target: T2, Dual specificity protein kinase TTK (Homo sapiens) (UniProt P33981); conditions: Compound concentration 1000.0 nM
T2 sequence (whole entry): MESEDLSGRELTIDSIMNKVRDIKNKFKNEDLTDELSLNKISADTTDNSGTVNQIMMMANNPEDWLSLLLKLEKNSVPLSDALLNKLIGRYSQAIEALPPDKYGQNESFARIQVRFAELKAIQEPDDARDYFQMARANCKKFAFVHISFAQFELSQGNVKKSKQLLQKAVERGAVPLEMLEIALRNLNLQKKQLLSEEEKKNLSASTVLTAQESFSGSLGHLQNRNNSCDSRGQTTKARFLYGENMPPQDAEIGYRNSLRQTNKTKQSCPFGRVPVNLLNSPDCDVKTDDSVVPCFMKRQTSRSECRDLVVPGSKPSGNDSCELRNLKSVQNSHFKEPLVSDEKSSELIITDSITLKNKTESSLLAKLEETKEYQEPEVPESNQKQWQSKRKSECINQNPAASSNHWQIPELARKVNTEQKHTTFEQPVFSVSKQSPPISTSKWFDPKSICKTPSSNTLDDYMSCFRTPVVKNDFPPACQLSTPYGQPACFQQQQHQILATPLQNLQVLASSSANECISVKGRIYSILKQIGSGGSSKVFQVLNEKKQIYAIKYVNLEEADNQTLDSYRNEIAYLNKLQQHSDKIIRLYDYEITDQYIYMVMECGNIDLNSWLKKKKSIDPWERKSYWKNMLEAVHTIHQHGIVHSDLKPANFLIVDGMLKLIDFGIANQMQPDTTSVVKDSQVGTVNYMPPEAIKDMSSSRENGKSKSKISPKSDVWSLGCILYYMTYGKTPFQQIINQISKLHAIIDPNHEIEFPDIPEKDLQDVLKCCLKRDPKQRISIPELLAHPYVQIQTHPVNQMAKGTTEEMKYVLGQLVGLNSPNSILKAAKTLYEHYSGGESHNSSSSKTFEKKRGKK

[23] = molecular target: Delta-type opioid receptor (Homo sapiens) (UniProt P41143); conditions: Compound concentration 10.0 uM

Sequence of Tyrosine-protein kinase Blk (Homo sapiens) (P51451 2-505 limits assumed): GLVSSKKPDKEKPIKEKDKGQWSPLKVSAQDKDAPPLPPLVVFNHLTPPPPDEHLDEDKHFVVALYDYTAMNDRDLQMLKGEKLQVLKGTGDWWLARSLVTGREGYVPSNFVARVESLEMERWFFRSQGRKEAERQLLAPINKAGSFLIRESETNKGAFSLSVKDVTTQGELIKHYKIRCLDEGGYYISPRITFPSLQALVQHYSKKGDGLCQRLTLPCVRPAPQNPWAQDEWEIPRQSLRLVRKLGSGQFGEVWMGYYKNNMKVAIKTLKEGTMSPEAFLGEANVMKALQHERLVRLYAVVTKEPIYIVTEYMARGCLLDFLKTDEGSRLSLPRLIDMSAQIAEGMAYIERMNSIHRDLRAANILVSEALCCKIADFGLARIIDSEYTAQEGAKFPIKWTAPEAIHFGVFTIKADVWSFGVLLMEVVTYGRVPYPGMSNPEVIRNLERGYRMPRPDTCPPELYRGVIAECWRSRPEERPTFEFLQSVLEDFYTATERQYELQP

Row | Structure (SMILES) | residual activity [1] | residual activity [2] | residual activity [3] | residual activity [4] | residual activity [5] | residual activity [6] | residual activity [7] | residual activity [8] | residual activity [9] | residual activity [10] | residual activity [11] | residual activity [12] | residual activity [13] | residual activity [14] | residual activity [15] | residual activity [16] | residual activity [17] | residual activity [18] | residual activity [19] | residual activity [20] | further results
1 | CCc1ccccc1C(=O)Nc1n[nH]c2c(C)c(F)c(C3C(C#N)=C(C)N(C)C(C)=C3C#N)cc12 [BAY-3827] | 100% | 100% | 100% | 85% | 100% | 61% | 86% | 93% | 88% | 75% | 75% | 93% | 77% | 100% | 100% | 100% | 100% | 72% | 66% | 94% | residual activity [21]: 100%; residual activity [22]: 82%; inhibition [23]: 20.5%
2 | CC1=C(C#N)C(c2ccc3c(c2)c(NC(=O)c2ccccc2C)nn3C)C(C#N)=C(C)N1 [BAY-974] | 100% | 82% | 97% | 84% | 100% | 82% | 80% | 94% | 96% | 100% | 100% | 100% | 91% | 84% | 30% | 87% | 100% | 77% | 88% | 57% | residual activity [21]: 80%; residual activity [22]: 82%; inhibition [23]: 17.7%
